The data set can be described thus: Human HepG2 cell viability assay in 384 well format. The class given is toxicity, cell-based. Details: dose 125 nL, time 70.5 hour; concentration not given beside the values. The note with it: HepG2 cells, read-out: Inhibition.
On to `CCc1nnc2n1CCN(C(=O)C(C)Oc1ccc(C#N)cc1)C2` (stereo not drawn), for which the cytotoxicity at 70.5 h is -10.1%. Take `COc1c(CNC2CCCc3ccccc32)c(C)nn1C` (stereo not drawn): the cytotoxicity at 70.5 h was -8%. For `CS(=O)(=O)c1cccc(S(=O)(=O)NC(=O)CC2CCCCC2)c1`, the cytotoxicity at 70.5 h is -4.36%. Consider `O=C(c1ccoc1)N1CCCC2(CCC(=O)N2Cc2cccnc2)C1` (stereo not drawn), for which the cytotoxicity at 70.5 h came out at 2.4%. For the compound `Cc1n[nH]c(C2CN(C(=O)CCc3cscn3)CCO2)n1` (stereo not drawn), the cytotoxicity at 70.5 h is -1.63%. Take `Cc1nc(-c2ccoc2)n(CC(=O)N(C)CC(C)C)c1C`: the cytotoxicity at 70.5 h is -4.77%. As for `CNC(=O)C1(c2cnccn2)CCCN1C(=O)c1cccc(C)n1` (stereo not drawn), the cytotoxicity at 70.5 h was -5.53%. As to `CC(C)C(C)NC(=O)Nc1ccc(F)c(C(N)=O)c1` (stereo not drawn), the cytotoxicity at 70.5 h was -3.91%. `CC(C)(C)c1noc(CCC(=O)N(CC2CCOC2)C2CC2)n1` (stereo not drawn): the cytotoxicity at 70.5 h came out at 2.82%. For the compound `CCN1C(=O)C2(CCCCC2)NC12CCSCC2`, the cytotoxicity at 70.5 h is -7.61%.

For the compound `CCn1cnnc1CNC(=O)N(C)Cc1ccccc1OC`, the cytotoxicity at 70.5 h was -4%. Consider `Fc1cccnc1OC[C@@]12CCO[C@@H]1CCN(CC1CCOCC1)C2`, for which the cytotoxicity at 70.5 h was -9.65%. Regarding `O=C(CCC1CCCC1)N1CCC(c2cc3ncccc3c(O)n2)CC1`, the cytotoxicity at 70.5 h was 0.616%. As to `CC(C)CN1C[C@H]2CCN(C(=O)C3CCCO3)CC[C@H]2S1(=O)=O` (stereo partly drawn), the cytotoxicity at 70.5 h was -8.39%.

Consider `COCCNC(=O)Cn1ccc2sc(C)cc2c1=O`, for which the cytotoxicity at 70.5 h is -5.23%. For `O=C(c1ncc[nH]1)N1CCC(Cn2cc(-c3cccc(Cl)c3)nn2)CC1` the value was 20.7%; for `CN1C(=O)C2(CCCN(C(=O)c3ccc(=O)n(C)n3)C2)c2ccccc21` (stereo not drawn), 0.808%; for `CCC(=O)N1CCC(c2nc(N3CCOCC3)ncc2S(C)(=O)=O)CC1`, -9.6%. `O=C(Nc1nnc(C2CC2)s1)NC1CCOc2ccccc21` (stereo not drawn): the cytotoxicity at 70.5 h was found to be 22.9%. For `CC(C)CN1CCC2(CCN(CC3CC3)CC2)C1=O`, the cytotoxicity at 70.5 h was -8.5%. The same measure for `CCOCc1ncn2c1CN(C(=O)c1ccoc1)CC2`: -12.2%; for `Cc1n[nH]c(C)c1CCCNCc1cn(CCC(N)=O)c2ccccc12`: -3.31%; for `Cc1ccc(C(CC(=O)O)NC(=O)CCc2cccs2)cc1` (stereo not drawn): -1.09%.

In the case of `Cc1ccccc1-c1cncc(C2CCN(C3CCOCC3)CC2)n1`, the cytotoxicity at 70.5 h came to 1%.

Take `O=C1CCC[C@]2(CN(S(=O)(=O)C3CCCCC3)C[C@H]2c2cccnc2)N1`: the cytotoxicity at 70.5 h is -3.41%.

Regarding `Cc1ccccc1C(C)NC(=O)CN1CCN(Cc2ccc(Br)s2)CC1` (stereo not drawn), the cytotoxicity at 70.5 h came to 18.7%. Take `Cc1c(C(=O)NC2CC(C)(C)NC(C)(C)C2)cnn1-c1ccc(F)cc1`: the cytotoxicity at 70.5 h was -2.72%. Consider `O=C(c1ccco1)N1CCC2(CCC(=O)N2Cc2ccccc2)CC1`, for which the cytotoxicity at 70.5 h was -11.1%.

`CCN(Cc1nc(C(C)C)no1)Cc1cccs1`: the cytotoxicity at 70.5 h was -10.8%. Turning to `CCc1nnsc1C(=O)N1CCCN(Cc2cnn(C)c2)CC1`, the cytotoxicity at 70.5 h is -27.3%. `COCCN(Cc1cnn(C)c1)CC1CCN(C(C)C)CC1`: the cytotoxicity at 70.5 h is -1.39%. The same measure for `Cn1cccc1C(=O)N1CCC2(CC1)CN(c1ccsc1)C(=O)CO2`: -15.9%; for `COCC(=O)NCc1cc(=O)n2c(n1)CN(Cc1ccoc1)CCC2`: 1.73%; for `CC(C(=O)N1CCN(Cc2ccncc2)CC1)n1cncn1` (stereo not drawn): -4.9%. For `CCn1nc(C)c2nc(C(C)C)nc(N(C)Cc3ccco3)c21`, the cytotoxicity at 70.5 h was -17%.

For the compound `CC(C)(C)c1oc(C(N)=O)cc1CN1CCOC(C(F)(F)F)C1` (stereo not drawn), the cytotoxicity at 70.5 h is 1.68%.

Take `CNCCN1C(=O)CC[C@H]2CN(c3cnc4ccccc4n3)CC[C@H]21`: the cytotoxicity at 70.5 h is -2.89%. Take `CC(C)C(O)C1(CNC(=O)Nc2ccc(CN3CCOC3=O)cc2)CC1` (stereo not drawn): the cytotoxicity at 70.5 h is -11.3%. On to `Cn1cccc1C(=O)NCc1cnc2n1CCN(C(=O)N1CCCC1)C2`, for which the cytotoxicity at 70.5 h was -4.52%. Consider `CCN1CCN(S(=O)(=O)N2CCc3ccccc3C2)[C@H]2CS(=O)(=O)C[C@H]21`, for which the cytotoxicity at 70.5 h is -9.8%.

Take `CC(C)=CCC/C(C)=C/CC(C)(C)CNCc1ccco1`: the cytotoxicity at 70.5 h is -1%.

Regarding `NC(=O)Cn1cc(NC(=O)N2CCN(c3ccc(F)cc3)CC2)cn1`, the cytotoxicity at 70.5 h was 8.67%. Take `Cc1nn(C)c(Cl)c1CNCc1cccnc1N1CCN(C)CC1`: the cytotoxicity at 70.5 h is 2.87%.

As for `O=S(=O)(NCCNc1cc(-n2cccn2)ncn1)c1cccs1`, the cytotoxicity at 70.5 h was 12.1%. In the case of `Cc1ccc(C(=O)N2CCSCC2)cc1NC(C)C`, the cytotoxicity at 70.5 h was -3.36%. On to `COCCNC(=O)CCc1c(C)nn(-c2nc(C)c(C)c(=O)[nH]2)c1C`, for which the cytotoxicity at 70.5 h was -1.63%. Consider `Cc1nnc(CN(C)C2CCCN(Cc3noc(C4CC4)n3)C2)o1` (stereo not drawn), for which the cytotoxicity at 70.5 h is -8.76%. As for `COc1c(CNCc2cccnc2OC2CCCC2)c(C)nn1C`, the cytotoxicity at 70.5 h is -1.47%. For the compound `Cc1csc(C2CCCCN2C(=O)CN(C)C(C)C)n1` (stereo not drawn), the cytotoxicity at 70.5 h is 25.2%. Consider `Cc1ccc(C(=O)N2CCc3nc4c(C)csc4c(=O)n3CC2)cn1`, for which the cytotoxicity at 70.5 h is -4.08%.

Take `COCCN1C(=O)CCC12CCCN(C(=O)CC1CC1)CC2` (stereo not drawn): the cytotoxicity at 70.5 h was -6.84%. With `Nc1nccnc1C1CN(C(=O)COc2cccnc2)CCO1` (stereo not drawn), the cytotoxicity at 70.5 h was found to be 6.29%. For `Cc1ccc(C(C(=O)N2CC(c3ccccn3)C2)N(C)C)cc1` (stereo not drawn), the cytotoxicity at 70.5 h stood at 13%. For `Cc1ccc(NC(=O)Cn2cc(I)cn2)cc1` the value was 15.3%; for `COc1ccc(Cl)cc1C(=O)N1C[C@@H](NC(=O)N(C)C)[C@H](C(C)C)C1`, -10.5%.

`Cc1cccn2c(=O)cc(CSCC(=O)Nc3nnc(C(C)C)s3)nc12`: the cytotoxicity at 70.5 h came out at 1.52%. For `Cc1cnn(CC(C)NCc2cc(=O)n3ccccc3n2)c1` (stereo not drawn) the value was -11.2%. With `CCc1noc(C(C)N2CCN(Cc3noc(C)n3)CC2)n1` (stereo not drawn), the cytotoxicity at 70.5 h was determined as 26.6%. In the case of `CS(=O)(=O)c1ccc(CN2CCCC3(C2)C(=O)Nc2ccccc23)cc1` (stereo not drawn), the cytotoxicity at 70.5 h is 24.9%. For `CCOc1ncccc1C(=O)N1CCCC(n2nc(C)cc2C)C1` (stereo not drawn) the value was -5.39%; for `CCOc1ccccc1C(=O)N1CCCC(O)(CN(C)C)C1` (stereo not drawn), 11.6%. `CC(C)C(NC(=O)Cc1ccccc1)C(=O)NCc1ccc(O)nc1` (stereo not drawn): the cytotoxicity at 70.5 h was -11.4%.

Take `Fc1ccc(Nc2ccc(C3CCN(Cc4ncc[nH]4)CC3)nc2)nc1`: the cytotoxicity at 70.5 h was -4.32%. Consider `CCN(CCn1c(=O)oc2ccccc21)CC1CCOCC1`, for which the cytotoxicity at 70.5 h is -2.32%. With `CCS(=O)(=O)N1CCO[C@H]2[C@H](Oc3ncccc3F)CC[C@@H]21`, the cytotoxicity at 70.5 h was -11.9%.

Take `O=C(CN1CCSCC1c1ccccc1)N1CCOCC1` (stereo not drawn): the cytotoxicity at 70.5 h was -3.64%.

Take `CC(C)(C)C(=O)Nc1cnn(-c2ccccc2S(C)(=O)=O)c1`: the cytotoxicity at 70.5 h is -9.09%.

Take `O=C1CC[C@H]2CN(Cc3ncc[nH]3)CC[C@H]2N1CC1CCNCC1`: the cytotoxicity at 70.5 h was -1.94%. In the case of `COC(=O)c1cc(C(=O)N2CCN(C)CC2)n(-c2ccccc2)n1`, the cytotoxicity at 70.5 h was -6.12%.

In the case of `CCc1nc(C(=O)N2CCCC2)nn1-c1c(Cl)cccc1Cl`, the cytotoxicity at 70.5 h is -2.51%. The same measure for `C=C(Cl)CN1CCC(C(=O)c2cc(F)ccc2F)CC1`: -10.5%; for `O=C(NCc1ccnc(OCC2CC2)c1)C1Cc2ccccc2O1` (stereo not drawn): -4.48%; for `Cc1ccc(C(=O)N2C[C@H](NS(C)(=O)=O)[C@@H](C(C)C)C2)cc1F`: 2.48%.

For the compound `Cc1ccc(NC(=O)Nc2c[nH]c(=O)[nH]c2=O)c(Cl)c1`, the cytotoxicity at 70.5 h is -8.13%. For `Cc1ccccc1[C@@H]1CN(CCOCCO)C[C@H]1C(=O)O`, the cytotoxicity at 70.5 h is -6.95%. For the compound `COc1cc(CNCCNC(=O)c2ccc(O)cc2)ccc1SC`, the cytotoxicity at 70.5 h came to 55.5%.

As for `CNC(=O)COc1cccc(CNCc2c(C)noc2C)c1`, the cytotoxicity at 70.5 h came out at 10.2%. For `Cc1cc2cc(NC(=O)Cn3ncc(N4CCCC4)cc3=O)ccc2o1` the value was 15.3%. As to `Cc1ccc(Cl)c(NC(=O)NC2(C)CCOC2)c1` (stereo not drawn), the cytotoxicity at 70.5 h is -5.5%. With `Cc1cnn(C2CCCN(C(=O)CCc3ccncc3)C2)c1` (stereo not drawn), the cytotoxicity at 70.5 h was -0.811%. On to `CCC(=O)N1CCCCC1c1nc(N(C)C)ncc1-c1cc(C)no1` (stereo not drawn), for which the cytotoxicity at 70.5 h came out at 1.06%. With `CN(C(=O)c1ccc(C#N)cc1)c1nnc(C2CCOC2)s1` (stereo not drawn), the cytotoxicity at 70.5 h is -6.28%. In the case of `COC(=O)CC1C(=O)NCCN1c1nc2c(s1)c(C)nn2C` (stereo not drawn), the cytotoxicity at 70.5 h came to 5.02%.

As to `O=C1CC2(CCCNC2)C(=O)N1Cc1cccc(Cl)c1` (stereo not drawn), the cytotoxicity at 70.5 h worked out at 29.4%. On to `COc1cccc2c(=O)n(CCN3CCNCC3)cnc12`, for which the cytotoxicity at 70.5 h was -0.783%. As for `CC(NC(=O)CCC1CCCCC1)c1nnc2n1CCC2` (stereo not drawn), the cytotoxicity at 70.5 h was -4.91%.

Turning to `O=C(c1ccncc1)N1CCN2C[C@H](Oc3cncnc3)C[C@H]2C1`, the cytotoxicity at 70.5 h came to 1.56%. In the case of `Cc1cc(C)nc(C2CCN(C(=O)c3cnc(N(C)C)nc3)C2)n1` (stereo not drawn), the cytotoxicity at 70.5 h was -4.6%. For the compound `CCn1nc(CC(C)C)cc1C(=O)NCCn1cccc1`, the cytotoxicity at 70.5 h is -2.38%. As for `COCC(=O)NC[C@H]1CC[C@H](c2ccnc3ncnn32)CC1`, the cytotoxicity at 70.5 h was -8.99%.

Consider `Cc1nc(CCNC(=O)C2CC(=O)N(C(C)C)C2)cs1` (stereo not drawn), for which the cytotoxicity at 70.5 h worked out at 32.3%. Regarding `Cc1ccc([C@@]2(O)CC[C@@H]3CN(S(=O)(=O)c4cn(C)nc4C)C[C@@H]32)cc1`, the cytotoxicity at 70.5 h was -2.34%.

With `COc1ccccc1C(=O)NS(=O)(=O)c1cccc(C#N)c1`, the cytotoxicity at 70.5 h was -7.53%. The same measure for `c1ccc2oc(CN3CCCC3Cn3cncn3)nc2c1` (stereo not drawn): -6.61%.

Turning to `O=c1c2cc3c(cc2nnn1Cc1cccc(F)c1)OCCO3`, the cytotoxicity at 70.5 h was -9.5%.

Consider `CCn1nccc1CNc1[nH]cnc2nc(C)nc1-2`, for which the cytotoxicity at 70.5 h came out at 27.9%. As for `O=C(NCc1ccccc1)NCC1CCN(Cc2ccsc2)CC1`, the cytotoxicity at 70.5 h was -7.87%. In the case of `Cn1cc(N2CCCC(SCc3ccco3)C2=O)cn1` (stereo not drawn), the cytotoxicity at 70.5 h was found to be 14.8%.

The values above are taken from ChEMBL document CHEMBL3507680, “University of Dundee, Gates Library screen for HepG2 cell viability”.
